The test system of assay [1] is barnyard grass. The experiment in a line: Test Example 3: herbicidal effect by foliage application, Wagner pot (Table 18, symbol H). Type of assay: in vivo, barnyard grass (Echinochloa crus-galli). The essentials: (§1)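 Plants were sown in alluvial soil held under 0.1–0.5 cm standing water and grown 14 days in a greenhouse at 25–30 °C. An emulsifiable formulation, water-diluted to the set dose, was then sprayed onto the foliage, and effects were scored three weeks later using previously defined criteria.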

Assay [2] concerns false cleavers. The experiment in a line: Test Example 4: herbicidal effect by soil treatment (Table 19, symbol Q). The class given is in vivo, false cleavers (Galium spurium). The essentials: (§2)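 Scoring uses the grading scale of an earlier test, three weeks post-application. Treatment consists of spraying a diluted emulsion formulation across the surface of sterilized diluvial soil in which seeds are buried near 1.5 cm deep; boxes are kept in a greenhouse between 25° C. and 30° C.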

The test system of a further assay is Japanese bulrush. The experiment in a line: Test Example 1: herbicidal activity, application before weed generation under submerged conditions (Table 16, symbol B). Type of assay: in vivo, Japanese bulrush (Schoenoplectus juncoides). In outline:
(§3)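 Emulsion formulation, water-diluted to set dose, was put onto the flooded surface (4 cm depth, alluvial soil) the same day weeds were sown and 2.5-leaf rice transplanted. After 3 weeks at 25-30 °C under glass, each species was rated 0 (≤5% kill) to 5 (≥90% kill).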

For assay [3], the system named is blackgrass. Description: Test Example 4: herbicidal effect by soil treatment (Table 19, symbol J). Type of assay: in vivo, blackgrass (Alopecurus myosuroides). The essentials:
as §2

Assay [4] has as its system wild oat. The experiment in a line: Test Example 5: herbicidal effect by foliage application, plastic box (Table 20, symbol I). The class given is in vivo, wild oat (Avena fatua). To be noted: foliage application, three weeks after application. In outline:
(§4)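 Post-emergence foliar test in sterilized diluvial soil. Compound applied as water-diluted emulsion at a predetermined rate to 14-day-old plants; evaluation at three weeks.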

The next assay concerns oval-leafed pondweed. The experiment in a line: Test Example 1: herbicidal activity, application before weed generation under submerged conditions (Table 16, symbol C). The class given is in vivo, oval-leafed pondweed (Monochoria vaginalis). In outline:
as §3

Assay [5] deals with southern crabgrass. The experiment in a line: Test Example 5: herbicidal effect by foliage application, plastic box (Table 20, symbol F). The class given is in vivo, southern crabgrass (Digitaria ciliaris). To be noted: foliage application, three weeks after application. The essentials: as §4
The subject of the next assay is Chinese sprangletop. Description: Test Example 3: herbicidal effect by foliage application, Wagner pot (Table 18, symbol D). The class given is in vivo, chinese sprangletop (Leptochloa chinensis). The essentials: as §1
The next assay has as its system redroot pigweed. The experiment in a line: Test Example 4: herbicidal effect by soil treatment (Table 19, symbol N). The class given is in vivo, redroot pigweed (Amaranthus retroflexus). The essentials:
as §2

The subject of assay [6] is barnyard grass. The experiment in a line: Test Example 5: herbicidal effect by foliage application, plastic box (Table 20, symbol H). The class given is in vivo, barnyard grass (Echinochloa crus-galli). To be noted: foliage application, three weeks after application. In outline: as §4
The next assay concerns persian speedwell. The experiment in a line: Test Example 5: herbicidal effect by foliage application, plastic box (Table 20, symbol R). The class given is in vivo, Persian speedwell (Veronica persica). To be noted: foliage application, three weeks after application. In outline:
as §4

Assay [7] concerns blackgrass. Description: Test Example 5: herbicidal effect by foliage application, plastic box (Table 20, symbol J). The class given is in vivo, blackgrass (Alopecurus myosuroides). To be noted: foliage application, three weeks after application. The essentials:
as §4

Another assay has as its system Italian ryegrass. The experiment in a line: Test Example 4: herbicidal effect by soil treatment (Table 19, symbol K). The class given is in vivo, Italian ryegrass (Lolium multiflorum). In outline:
as §2

The subject of assay [8] is wild oat. The experiment in a line: Test Example 4: herbicidal effect by soil treatment (Table 19, symbol I). Type of assay: in vivo, wild oat (Avena fatua). The essentials: as §2
Assay [9] relates to southern crabgrass. The experiment in a line: Test Example 4: herbicidal effect by soil treatment (Table 19, symbol F). Type of assay: in vivo, southern crabgrass (Digitaria ciliaris). In outline: as §2
For a further assay, the system named is lambsquarters. Description: Test Example 5: herbicidal effect by foliage application, plastic box (Table 20, symbol O). The class given is in vivo, lambsquarters (Chenopodium album). To be noted: foliage application, three weeks after application. The essentials:
as §4

Another assay has as its system windgrass. Description: Test Example 5: herbicidal effect by foliage application, plastic box (Table 20, symbol L). Type of assay: in vivo, windgrass (Apera spica-venti). To be noted: foliage application, three weeks after application. In outline:
as §4

The test system of assay [10] is false cleavers. Description: Test Example 5: herbicidal effect by foliage application, plastic box (Table 20, symbol Q). The class given is in vivo, false cleavers (Galium spurium). To be noted: foliage application, three weeks after application. The essentials: as §4
Where [11] appears, read: amount of applied herbicide 320 g/ha.
The mark [12] stands for this setting: amount of applied herbicide 323 g/ha.

In the case of `CCOc1ccc2c(-c3c(O)c(C)nn(C)c3=O)c(-c3ccccc3OC)sc2c1` [3-089], the “herbicidal effect on barnyard grass (H)” value in the assay on barnyard grass [1] (320 g/ha) is reported as 5 (Herbicidal rate of 90% or more (almost completely withered)). The “Q: false cleavers, herbicidal effect grade” value (from here on “Q: false cleavers”) in the assay with false cleavers [2] (setting [11]) and in the assay with false cleavers [10] (320 g/ha) was 5 (Herbicidal rate of 90% or more (almost completely withered)) each time. Moreover, the “Herbicidal effect, B: Japanese bulrush” value with Japanese bulrush (setting [11]) was 5 (Herbicidal rate of 90% or more (almost completely withered)). Besides, the “J: blackgrass, herbicidal effect grade” value with blackgrass [3] (setting [11]) is 4 (Herbicidal rate of 70% or more and less than 90%); in the assay on blackgrass [7] (320 g/ha), 5 (Herbicidal rate of 90% or more (almost completely withered)). Besides, the “I: wild oat, herbicidal effect grade” value was 3 (Herbicidal rate of 40% or more and less than 70%) in the assay with wild oat [4] (320 g/ha); 1 (Herbicidal rate of 5% or more and less than 20%) in the assay on wild oat [8] (setting [11]). The “Herbicidal effect, C: oval-leafed pondweed” value (“Herbicidal effect, C” below) in the assay with oval-leafed pondweed (setting [11]) is 5 (Herbicidal rate of 90% or more (almost completely withered)). Also, the “F: southern crabgrass, herbicidal effect grade” value (“F: southern crabgrass” below) with southern crabgrass [5] (320 g/ha) was 4 (Herbicidal rate of 70% or more and less than 90%); with southern crabgrass [9] (setting [11]) it was 5 (Herbicidal rate of 90% or more (almost completely withered)). The “herbicidal effect on Chinese sprangletop (D)” value (shortened to “herbicidal effect … (D)”) in the assay with Chinese sprangletop (320 g/ha) was 4 (Herbicidal rate of 70% or more and less than 90%). Also, the “N: redroot pigweed, herbicidal effect grade” value (shortened to “N: redroot pigweed”) with redroot pigweed (setting [11]) is 5 (Herbicidal rate of 90% or more (almost completely withered)). Moreover, the “H: barnyard grass, herbicidal effect grade” value (from here on “H: barnyard grass”) with barnyard grass [6] (320 g/ha) is reported as 5 (Herbicidal rate of 90% or more (almost completely withered)). In addition, the “R: persian speedwell, herbicidal effect grade” value (“R: persian speedwell” below) in the assay with persian speedwell (320 g/ha) was 5 (Herbicidal rate of 90% or more (almost completely withered)). Further, in the assay with Italian ryegrass (setting [11]), the “K: Italian ryegrass, herbicidal effect grade” value (from here on “K: Italian ryegrass”) was 4 (Herbicidal rate of 70% or more and less than 90%). Also, the “O: lambsquarters, herbicidal effect grade” value (from here on “O: lambsquarters”) with lambsquarters (320 g/ha) was 4 (Herbicidal rate of 70% or more and less than 90%). Further, the “L: windgrass, herbicidal effect grade” value with windgrass (320 g/ha) was 5 (Herbicidal rate of 90% or more (almost completely withered)).

For the compound `CCOc1ccc2c(-c3c(O)c(C)nn(C)c3=O)c(-c3ccccc3OCC)sc2c1` [3-093], the “herbicidal effect on barnyard grass (H)” value with barnyard grass [1] (320 g/ha) was 5 (Herbicidal rate of 90% or more (almost completely withered)). Moreover, the “Q: false cleavers” value in the assay with false cleavers [2] (setting [11]) was 3 (Herbicidal rate of 40% or more and less than 70%); with false cleavers [10] (320 g/ha), 5 (Herbicidal rate of 90% or more (almost completely withered)). Besides, in the assay with Japanese bulrush (setting [11]), the “Herbicidal effect, B: Japanese bulrush” value is listed as 5 (Herbicidal rate of 90% or more (almost completely withered)). The “J: blackgrass, herbicidal effect grade” value was 3 (Herbicidal rate of 40% or more and less than 70%) in the assay on blackgrass [3] (setting [11]); 4 (Herbicidal rate of 70% or more and less than 90%) in the assay with blackgrass [7] (320 g/ha). The “I: wild oat, herbicidal effect grade” value is 4 (Herbicidal rate of 70% or more and less than 90%) with wild oat [4] (320 g/ha); 3 (Herbicidal rate of 40% or more and less than 70%) in the assay on wild oat [8] (setting [11]). The “Herbicidal effect, C” value in the assay with oval-leafed pondweed (setting [11]) is given as 5 (Herbicidal rate of 90% or more (almost completely withered)). Moreover, the “F: southern crabgrass” value with southern crabgrass [5] (320 g/ha) and in the assay with southern crabgrass [9] (setting [11]) was 5 (Herbicidal rate of 90% or more (almost completely withered)) throughout. For the same compound, the “herbicidal effect … (D)” value in the assay with Chinese sprangletop (320 g/ha) was 5 (Herbicidal rate of 90% or more (almost completely withered)). In the assay on redroot pigweed (setting [11]), the “N: redroot pigweed” value is given as 5 (Herbicidal rate of 90% or more (almost completely withered)). Further, the “H: barnyard grass” value in the assay on barnyard grass [6] (320 g/ha) is on record as 5 (Herbicidal rate of 90% or more (almost completely withered)). The “R: persian speedwell” value in the assay on persian speedwell (320 g/ha) is 5 (Herbicidal rate of 90% or more (almost completely withered)). Moreover, the “K: Italian ryegrass” value with Italian ryegrass (setting [11]) is 4 (Herbicidal rate of 70% or more and less than 90%). In the assay on lambsquarters (320 g/ha), the “O: lambsquarters” value was 5 (Herbicidal rate of 90% or more (almost completely withered)). Moreover, the “L: windgrass, herbicidal effect grade” value with windgrass (320 g/ha) was 5 (Herbicidal rate of 90% or more (almost completely withered)).

Consider `CCCC(=O)Oc1c(C)nn(C)c(=O)c1-c1c(-c2ccccc2OCC)sc2cc(OCC)ccc12` [3-094], for which the “herbicidal effect on barnyard grass (H)” value with barnyard grass [1] (323 g/ha) is 5 (Herbicidal rate of 90% or more (almost completely withered)). Besides, the “Q: false cleavers” value in the assay on false cleavers [2] (setting [12]) is 4 (Herbicidal rate of 70% or more and less than 90%); in the assay on false cleavers [10] (323 g/ha), 5 (Herbicidal rate of 90% or more (almost completely withered)). In the assay with Japanese bulrush (setting [12]), the “Herbicidal effect, B: Japanese bulrush” value is listed as 5 (Herbicidal rate of 90% or more (almost completely withered)). Further, the “J: blackgrass, herbicidal effect grade” value is 2 (Herbicidal rate of 20% or more and less than 40%) in the assay with blackgrass [3] (setting [12]); 4 (Herbicidal rate of 70% or more and less than 90%) in the assay on blackgrass [7] (323 g/ha). Besides, the “I: wild oat, herbicidal effect grade” value in the assay on wild oat [4] (323 g/ha) is recorded as 5 (Herbicidal rate of 90% or more (almost completely withered)); with wild oat [8] (setting [12]), 0 (Herbicidal rate of 5% or less (almost no effect)). Further, the “Herbicidal effect, C” value in the assay with oval-leafed pondweed (setting [12]) is listed as 5 (Herbicidal rate of 90% or more (almost completely withered)). The “F: southern crabgrass” value in the assay on southern crabgrass [5] (323 g/ha) was 4 (Herbicidal rate of 70% or more and less than 90%); in the assay with southern crabgrass [9] (setting [12]), 3 (Herbicidal rate of 40% or more and less than 70%). For the same compound, the “herbicidal effect … (D)” value in the assay with Chinese sprangletop (323 g/ha) was 5 (Herbicidal rate of 90% or more (almost completely withered)). In addition, the “N: redroot pigweed” value in the assay with redroot pigweed (setting [12]) is 5 (Herbicidal rate of 90% or more (almost completely withered)). The “H: barnyard grass” value in the assay with barnyard grass [6] (323 g/ha) was 5 (Herbicidal rate of 90% or more (almost completely withered)). For the same compound, the “R: persian speedwell” value with persian speedwell (323 g/ha) was 5 (Herbicidal rate of 90% or more (almost completely withered)). Also, the “K: Italian ryegrass” value with Italian ryegrass (setting [12]) was 4 (Herbicidal rate of 70% or more and less than 90%). Moreover, the “O: lambsquarters” value in the assay with lambsquarters (323 g/ha) was 4 (Herbicidal rate of 70% or more and less than 90%). The “L: windgrass, herbicidal effect grade” value in the assay on windgrass (323 g/ha) was 5 (Herbicidal rate of 90% or more (almost completely withered)).

The values above are taken from patent publication US20230085307A1, “PYRIDAZINONE COMPOUND AND HERBICIDE” (NISSAN CHEMICAL CORPORATION, priority 2019, published 2023).
